Marks after values point to notes of the source that are not given here. Strand notation (5' to 3'): a small letter for the sugar, then the base; units joined by * are phosphorothioate-linked, units joined directly phosphodiester-linked; [ ] holds rarer units or linkages, { } end groups; capitals alone tell only the bases. [ms] = mesyl phosphoramidate linkage; e = 2'-O-(2-methoxyethyl) (MOE); k = constrained ethyl (cEt); [5mC] = 5-methylcytosine; d = 2'-deoxy (DNA)
What was measured:
[1] = system: human APOE RNA; assay: Dose-dependent inhibition of human APOE RNA in HepG2 cells, electroporation, 50,000 cells per well, RT-PCR normalized to GAPDH (Example 4, Tables 8-10); type: cell-based
How it was run: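 HepG2 cells, 50,000 per well, electroporated with modified oligonucleotide at various concentrations. APOE RNA quantified by RT-PCR with human primer probe set RTS3073, normalized to GAPDH. Values are percent APOE RNA relative to untreated control cells.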

[2] = system: human APOE RNA; assay: Dose-dependent reduction of human APOE RNA in HepG2 cells, electroporation, 20,000 cells per well, normalized to PPIA (Example 4, Table 11); type: cell-based; conditions: HepG2 cells, 20,000 cells per well, approximately 24 hours; for APOE RNA (% UTC) 5 nM / APOE RNA (% UTC) 13 nM / APOE RNA (% UTC) 33 nM / APOE RNA (% UTC) 82 nM / APOE RNA (% UTC) 205 nM / APOE RNA (% UTC) 512 nM / IC50: PPIA-normalized; for APOE RNA (% UTC) 1,280 nM: PPIA-normalized, 1,280 nM; for APOE RNA (% UTC) 3,200 nM: PPIA-normalized, 3,200 nM; for APOE RNA (% UTC) 8,000 nM: PPIA-normalized, 8,000 nM; for APOE RNA (% UTC) 20,000 nM: PPIA-normalized, 20,000 nM; for IC50: reduction of human APOE RNA
Protocol: HepG2 cells plated at a density of 20,000 cells per well were treated by electroporation with various concentrations of modified oligonucleotide as specified in the tables below. […] APOE RNA levels were measured using the human primer probe set RTS3073 (described herein above). APOE RNA levels were normalized to human PPIA. Human PPIA was amplified using human primer probe set mk_cycloA_2nd (forward sequence […], designated herein as SEQ ID NO: 13; reverse sequence […], designated herein as SEQ ID NO: 14; probe sequence […], designated herein as SEQ ID NO: 15). Normalized results are presented in the table below as percent APOE RNA, relative to the amount of APOE RNA in untreated control cells (% UTC). The half maximal inhibitory concentration (IC50) of each modified oligonucleotide was calculated in GraphPad Prism 10 (GraphPad Software, San Diego, CA) and is also presented in the table below.

[3] = system: human APOE RNA; assay: Activity in APOE C57BL/6NTac-Apoeem7250 knock-in mice, single ICV bolus, 16 weeks (Example 12); type: in vivo; conditions: single ICV bolus 300 μg, 16 weeks post treatment, normalized to mouse Ppia
How it was run: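 Knock-in mice (3-4 per group) received one ICV bolus of 300 μg oligonucleotide, PBS as control. After 16 weeks, human APOE RNA in cortex and spinal cord measured by RT-qPCR, normalized to mouse Ppia, and reported as % of PBS control.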

[4] = system: human APOE RNA; assay: Activity in APOE C57BL/6NTac-Apoeem7250 knock-in mice, single ICV bolus, 20 weeks (Example 13); type: in vivo; conditions: single ICV bolus 300 μg, 20 weeks post treatment, normalized to mouse Ppia
How it was run: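 Knock-in mice (n=4) given a single ICV bolus of 300 μg oligonucleotide, PBS as control. After 20 weeks, human APOE RNA in cortex and spinal cord measured by RT-qPCR, normalized to mouse Ppia, expressed as % of PBS-treated animals.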

[5] = system: human APOE RNA; assay: Duration of action study in APOE C57BL/6NTac-Apoeem7250 knock-in mice (Example 18); type: in vivo
Protocol: Modified oligonucleotides described above were tested in the APOE C57BL/6NTac-Apoeem7250 knock-in model (described above).
Each mouse received a single intracerebroventricular (ICV) bolus of 300 μg of modified oligonucleotide. A group of 4-6 mice received a single ICV bolus with PBS as a negative control.
Mice were sacrificed at various timepoints as indicated in the table below and RNA was extracted from cortical brain tissue and spinal cord for quantitative real-time RT-PCR analysis of RNA expression of APOE using primer probe set RTS3073 (described herein above). APOE RNA levels were normalized to mouse Ppia. Mouse Ppia was amplified using primer probe set m_cyclo24 (described herein above). Results are presented as percent human APOE RNA relative to the amount of human APOE RNA in PBS treated animals, (% control). Each experiment is identified in separate tables below.

[6] = 196 days post-dose, single ICV bolus 300 μg, APOE knock-in mice, normalized to mouse Ppia, relative to PBS
[7] = 224 days post-dose, single ICV bolus 300 μg, APOE knock-in mice, normalized to mouse Ppia, relative to PBS
[8] = 285 days post-dose, single ICV bolus 300 μg, APOE knock-in mice, normalized to mouse Ppia, relative to PBS

## Aes^mCeoTeoTesGesGksTdsGdzAdzAdzTds^mCdsTdsTdsTdsAdzTksTksAesAe (eA*e[5mC]eTeT*eG*kG*dT*dG[ms]dA[ms]dA[ms]dT*d[5mC]*dT*dT*dT*dA[ms]kT*kT*eA*eA) [Compound No. 1757576]
[1]; 5 nM, HepG2, electroporation, 16-hour treatment
  APOE RNA (% UTC): 86 % UTC
[1]; 13 nM, HepG2, electroporation, 16-hour treatment
  APOE RNA (% UTC): 74 % UTC
[1]; 33 nM, HepG2, electroporation, 16-hour treatment
  APOE RNA (% UTC): 80 % UTC
[1]; 82 nM, HepG2, electroporation, 16-hour treatment
  APOE RNA (% UTC): 84 % UTC
[1]; 205 nM, HepG2, electroporation, 16-hour treatment
  APOE RNA (% UTC): 74 % UTC
[1]; 512 nM, HepG2, electroporation, 16-hour treatment
  APOE RNA (% UTC): 61 % UTC
[1]; 1,280 nM, HepG2, electroporation, 16-hour treatment
  APOE RNA (% UTC): 45 % UTC
[1]; 3,200 nM, HepG2, electroporation, 16-hour treatment
  APOE RNA (% UTC): 32 % UTC
[1]; 8,000 nM, HepG2, electroporation, 16-hour treatment
  APOE RNA (% UTC): 22 % UTC
[1]; 20,000 nM, HepG2, electroporation, 16-hour treatment
  APOE RNA (% UTC): 7 % UTC
[1]; HepG2, electroporation, 16-hour treatment
  IC50: 820 nM
[1]; HepG2 cells, electroporation, 24-hour treatment, 5 nM, Table 8
  APOE RNA (% UTC) 5 nM: 86 % UTC
[1]; HepG2 cells, electroporation, 24-hour treatment, 13 nM, Table 8
  APOE RNA (% UTC) 13 nM: 81 % UTC
[1]; HepG2 cells, electroporation, 24-hour treatment, 33 nM, Table 8
  APOE RNA (% UTC) 33 nM: 63 % UTC
[1]; HepG2 cells, electroporation, 24-hour treatment, 82 nM, Table 8
  APOE RNA (% UTC) 82 nM: 67 % UTC
[1]; HepG2 cells, electroporation, 24-hour treatment, 205 nM, Table 8
  APOE RNA (% UTC) 205 nM: 46 % UTC
[1]; HepG2 cells, electroporation, 24-hour treatment, 512 nM, Table 8
  APOE RNA (% UTC) 512 nM: 23 % UTC
[1]; HepG2 cells, electroporation, 24-hour treatment, 1,280 nM, Table 8
  APOE RNA (% UTC) 1,280 nM: 24 % UTC
[1]; HepG2 cells, electroporation, 24-hour treatment, 3,200 nM, Table 8
  APOE RNA (% UTC) 3,200 nM: 11 % UTC
[1]; HepG2 cells, electroporation, 24-hour treatment, 8,000 nM, Table 8
  APOE RNA (% UTC) 8,000 nM: 15 % UTC
[1]; HepG2 cells, electroporation, 24-hour treatment, 20,000 nM, Table 8
  APOE RNA (% UTC) 20,000 nM: 2 % UTC
[1]; reduction of human APOE RNA, HepG2 cells, electroporation, 24-hour treatment, Table 8
  IC50: 140 nM
[2]
  APOE RNA (% UTC) 5 nM: 78 % UTC
  APOE RNA (% UTC) 13 nM: 74 % UTC
  APOE RNA (% UTC) 33 nM: 70 % UTC
  APOE RNA (% UTC) 82 nM: 56 % UTC
  APOE RNA (% UTC) 205 nM: 41 % UTC
  APOE RNA (% UTC) 512 nM: 25 % UTC
  APOE RNA (% UTC) 1,280 nM: 12 % UTC
  APOE RNA (% UTC) 3,200 nM: 6 % UTC
  APOE RNA (% UTC) 8,000 nM: 3 % UTC
  APOE RNA (% UTC) 20,000 nM: 7 % UTC
  IC50: 90 nM
[3]; cortex
  APOE RNA (% control) Cortex: 45 % control
[3]; spinal cord
  APOE RNA (% control) Spinal Cord: 14 % control
[4]; cortex
  APOE RNA (% control) Cortex: 32 % control
[4]; spinal cord
  APOE RNA (% control) Spinal Cord: 31 % control
[5]; [6]
  APOE RNA (% control) Cortex: 71 % control
  APOE RNA (% control) Spinal Cord: 28 % control
[5]; [7]
  APOE RNA (% control) Cortex: 92‡ % control
  APOE RNA (% control) Spinal Cord: 33‡ % control
[5]; [8]
  APOE RNA (% control) Cortex: 87 % control
  APOE RNA (% control) Spinal Cord: 86 % control

## TezTeoGeoGksTdsGdzAdzAdzTds^mCdsTdsTdsTdsAdzTksTksAesAesAes^mCe (antisense eT[ms]eTeGkG*dT*dG[ms]dA[ms]dA[ms]dT*d[5mC]*dT*dT*dT*dA[ms]kT*kT*eA*eA*eA*e[5mC]) [Compound No. 1809814]
[2]
  APOE RNA (% UTC) 5 nM: 102 % UTC
  APOE RNA (% UTC) 13 nM: 95 % UTC
  APOE RNA (% UTC) 33 nM: 95 % UTC
  APOE RNA (% UTC) 82 nM: 88 % UTC
  APOE RNA (% UTC) 205 nM: 71 % UTC
  APOE RNA (% UTC) 512 nM: 49 % UTC
  APOE RNA (% UTC) 1,280 nM: 19 % UTC
  APOE RNA (% UTC) 3,200 nM: 31 % UTC
  APOE RNA (% UTC) 8,000 nM: 8 % UTC
  APOE RNA (% UTC) 20,000 nM: 13 % UTC
  IC50: 540 nM
[5]; 300 μg ICV, 28 days post-dose
  APOE RNA (% control) Cortex: 55 % control
  APOE RNA (% control) Spinal Cord: 52 % control
[5]; 300 μg ICV, 112 days post-dose
  APOE RNA (% control) Cortex: 57 % control
  APOE RNA (% control) Spinal Cord: 39 % control
[5]; 300 μg ICV, 140 days post-dose
  APOE RNA (% control) Cortex: 71 % control
  APOE RNA (% control) Spinal Cord: 43 % control
[5]; [6]
  APOE RNA (% control) Cortex: 68 % control
  APOE RNA (% control) Spinal Cord: 57 % control
[5]; [7]
  APOE RNA (% control) Cortex: 90 % control
  APOE RNA (% control) Spinal Cord: 54 % control
[5]; [8]
  APOE RNA (% control) Cortex: 95 % control
  APOE RNA (% control) Spinal Cord: 84 % control

— patent US20250353873A1, “COMPOUNDS AND METHODS FOR MODULATING APOE EXPRESSION” (Ionis Pharmaceuticals, Inc., priority 2024, published 2025)
